Reference: paper PMC4764975, “Probing the enzyme kinetics, allosteric modulation and activation of α1- and α2-subunit-containing AMP-activated protein kinase (AMPK) heterotrimeric complexes by pharmacological and physiological activators” (Biochemical Journal, 2016)
Entries after “also recorded” stand apart in the source; their conditions may differ. Read-outs that look alike come from different tables or passages of the source.

Columns and labels:
BAP-tagged AMPK α2β2γ1 = biological target: T1, BAP-tagged AMPK α2β2γ1 (Homo sapiens, UniProt O43741+P54619+P54646); assay: SPR direct binding (Biacore)
T1 construct: Recombinant full-length AMPK heterotrimeric complexes α1β1γ1, α1β2γ1, α1β2γ3, α2β1γ1, α2β2γ1 and α2β2γ3 were cloned into a tricistronic vector system; 6X-His (N); made in house; host or cells: E. coli BL21-CodonPlus (DE3)-RIPL, co-expressed with BirA
Experimental: (§1) SPR experiments were performed on a Biacore™ 3000 instrument (GE Healthcare). BAP-tagged AMPK isoform (α1β1γ1, α1β2γ1, α2β2γ1, α2β2γ3) was captured on to a streptavidin sensor chip to levels ranging from 4000 to 6000 RU. […] Binding responses were processed using Scrubber 2 (BioLogic Software Pty Ltd) to zero, x-align, double reference and corrected for excluded volume effect of DMSO in the data. […] The compound was injected at a flow rate of 50 μl/min with total contact time of 120 s and dissociation time of 600 s. Rate parameters (kon, koff) and corresponding dissociation constant(KD=koff/kon) were determined by globally fitting all of the experimental data to a simple 1:1 interaction model using Biaeval software (GE Healthcare). To determine nt binding, 10 concentrations with 2-fold dilutions were tested in duplicate. The highest concentration tested was 2 mM. The compound was injected at a flow rate of 50 μl/min with total contact time of 120 s and dissociation time of 300 s. Equilibrium dissociation constant (KD) was determined using a steady-state affinity algorithm available within Scrubber.
(§2) We then compared the binding of nts (AMP, ADP and ATP) to α1β1γ1, α1β2γ1, α2β2γ1 and α2β2γ3 isoforms in the presence and absence of Mg^2+ and Stau, using SPR technique. […]

BAP-tagged AMPK α1β1γ1 [1] = biological target: T2, BAP-tagged AMPK α1β1γ1 (Homo sapiens, UniProt P54619+Q13131+Q9Y478); assay: SPR direct binding (Biacore)
T2 construct: Recombinant full-length AMPK heterotrimeric complexes α1β1γ1, α1β2γ1, α1β2γ3, α2β1γ1, α2β2γ1 and α2β2γ3 were cloned; 6X-His (N); AviTag (BAP); made in house; host or cells: E. coli (co-expressed with BirA)
Experimental: as §1, §2

AMPK α1β2γ3 [2] = biological target: T3, AMPK α1β2γ3 (Homo sapiens, UniProt O43741+Q13131+Q9UGI9); assay: Protection of pAMPK α-pThr172/174 from PP2Aα (slot-blot ELISA); format: biochemical
T3 construct: Recombinant full-length AMPK heterotrimeric complexes α1β1γ1, α1β2γ1, α1β2γ3, α2β1γ1, α2β2γ1 and α2β2γ3 were cloned; 6X-His (N); made in house; host or cells: E. coli BL21-CodonPlus (DE3)-RIPL
Experimental: (§3) Test compound was previously diluted in half-log increments, starting at 40 μM in 100% DMSO, diluted 10-fold in assay buffer and dispensed into a microtitre plate. After 15 min at room temperature, phosphatase was added to the mixture and the reaction was allowed to proceed for 60 min at room temperature. Reactions were quenched by the addition of okadaic acid, and transferred to PVDF membrane using the slot-blot apparatus and subjected to immunoblotting. Phosphatase sensitivity was similarly assessed by subjecting pAMPK to a phosphatase (PP2Aα) treatment using various concentrations and incubation times. The concentration of phosphatase was expressed as nmol of PP2Aα per minute per nmol of pAMPK in the reaction.
(§4) The membrane was blocked with Western Blot Blocking Buffer Reagent (Li-Cor) for 3–4 h at room temperature. […] Following the wash step, goat anti-rabbit 800CW (Rockland) at 1:10000 dilution was used as a secondary antibody. Blots were visualized using the Li-Cor Odyssey infrared imaging system and signal quantification was performed using the Odyssey software.
(§5) Data are mean (n=2), and curves were generated using best-fit values.

AMPK α2β1γ1 = biological target: T4, AMPK α2β1γ1 (Homo sapiens, UniProt P54619+P54646+Q9Y478); assay: as above; format: biochemical
T4 construct: Recombinant full-length AMPK heterotrimeric complexes α1β1γ1, α1β2γ1, α1β2γ3, α2β1γ1, α2β2γ1 and α2β2γ3 were cloned; 6X-His (N); made in house; host or cells: E. coli BL21-CodonPlus (DE3)-RIPL
Experimental: as §3, §4, §5

AMPK α1β2γ1 [3] = biological target: T5, AMPK α1β2γ1 (Homo sapiens, UniProt O43741+P54619+Q13131); assay: as above; format: biochemical
T5 construct: Recombinant full-length AMPK heterotrimeric complexes α1β1γ1, α1β2γ1, α1β2γ3, α2β1γ1, α2β2γ1 and α2β2γ3 were cloned; 6X-His (N); made in house; host or cells: E. coli BL21-CodonPlus (DE3)-RIPL
Experimental: as §3, §4, §5

AMPK α1β1γ1 [4] = biological target: T6, AMPK α1β1γ1 (Homo sapiens, UniProt P54619+Q13131+Q9Y478); assay: as above; format: biochemical
T6 construct: Recombinant full-length AMPK heterotrimeric complexes α1β1γ1, α1β2γ1, α1β2γ3, α2β1γ1, α2β2γ1 and α2β2γ3 were cloned; 6X-His (N); made in house; host or cells: E. coli BL21-CodonPlus (DE3)-RIPL
Experimental: as §3, §4, §5

AMPK α2β2γ3 [5] = biological target: T7, AMPK α2β2γ3 (Homo sapiens, UniProt O43741+P54646+Q9UGI9); assay: as above; format: biochemical
T7 construct: Recombinant full-length AMPK heterotrimeric complexes α1β1γ1, α1β2γ1, α1β2γ3, α2β1γ1, α2β2γ1 and α2β2γ3 were cloned; 6X-His (N); made in house; host or cells: E. coli BL21-CodonPlus (DE3)-RIPL
Experimental: as §3, §4, §5

AMPK α2β2γ1 [6] = biological target: T8, AMPK α2β2γ1 (Homo sapiens, UniProt O43741+P54619+P54646); assay: as above; format: biochemical
T8 construct: Recombinant full-length AMPK heterotrimeric complexes α1β1γ1, α1β2γ1, α1β2γ3, α2β1γ1, α2β2γ1 and α2β2γ3 were cloned; 6X-His (N); made in house; host or cells: E. coli BL21-CodonPlus (DE3)-RIPL
Experimental: as §3, §4, §5

BAP-tagged AMPK α1β1γ1 [7] = biological target: T2, BAP-tagged AMPK α1β1γ1; set-up: method as in PMID 25066137; details: reported previously; cited from earlier work
AMPK α1β2γ3 [8] = biological target: T3, AMPK α1β2γ3; assay: TR-FRET allosteric activation assay; format: biochemical; details: 50 nM Cy5-SAMS, ATP at Km
Excerpt: (§6) After excitation at 320 nm, the energy from the Europium donor is transferred to the Cy5 acceptor which in turn generates light at 665 nm. The intensity of the signal is proportional to the level of AMPK-mediated Cy5 substrate phosphorylation. […] Non-specific emission obtained from samples containing all the reagents except enzyme was used to normalize the values.
(§7) The basal kinase activity of the pAMPK isoforms in the absence of activator was normalized to zero (baseline) and the changes in the enzyme activity in the presence of activator at different concentrations was compared with the basal activity.

AMPK α1β2γ1 [9] = biological target: T5, AMPK α1β2γ1; assay: TR-FRET allosteric activation assay; format: biochemical; details: 50 nM Cy5-SAMS, ATP at Km
Excerpt: as §6, §7

AMPK α1β1γ1 [10] = biological target: T6, AMPK α1β1γ1; assay: TR-FRET allosteric activation assay; format: biochemical; details: 50 nM Cy5-SAMS, ATP at Km
Excerpt: as §6, §7

AMPK α2β2γ3 [11] = biological target: T7, AMPK α2β2γ3; assay: TR-FRET allosteric activation assay; format: biochemical; details: 50 nM Cy5-SAMS, ATP at Km
Excerpt: as §6, §7

AMPK α2β2γ1 [12] = biological target: T8, AMPK α2β2γ1; assay: TR-FRET allosteric activation assay; format: biochemical; details: 50 nM Cy5-SAMS, ATP at Km
Excerpt: as §6, §7

BAP-tagged AMPK α2β2γ3 = biological target: T9, BAP-tagged AMPK α2β2γ3 (Homo sapiens, UniProt O43741+P54646+Q9UGI9); assay: SPR direct binding (Biacore)
T9 construct: Recombinant full-length AMPK heterotrimeric complexes α1β1γ1, α1β2γ1, α1β2γ3, α2β1γ1, α2β2γ1 and α2β2γ3 were cloned into a tricistronic vector system; 6X-His (N); made in house; host or cells: E. coli BL21-CodonPlus (DE3)-RIPL, co-expressed with BirA
Experimental: as §1
(§8) We then compared the binding of nts (AMP, ADP and ATP) to α1β1γ1, α1β2γ1, α2β2γ1 and α2β2γ3 isoforms in the presence and absence of Mg^2+ and Stau, using SPR technique.

BAP-tagged AMPK α1β2γ1 = biological target: T10, BAP-tagged AMPK α1β2γ1 (Homo sapiens, UniProt O43741+P54619+Q13131); assay: SPR direct binding (Biacore)
T10 construct: Recombinant full-length AMPK heterotrimeric complexes α1β1γ1, α1β2γ1, α1β2γ3, α2β1γ1, α2β2γ1 and α2β2γ3 were cloned into a tricistronic vector system; 6X-His (N); made in house; host or cells: E. coli BL21-CodonPlus (DE3)-RIPL, co-expressed with BirA
Experimental: as §1, §8

[13] = activator concentration for half-maximal protection of pThr172/174, 10 nM AMPK, 40 nM PP2Aα, read-out: Protection pEC50 (converted)
[14] = extent of protection (Figure 7)
[15] = presence of Mg2+ and 25 nM Stau, cell spans KD1 and KD2, read-out: KD (single measurable binding affinity)
[16] = presence of Mg2+, cell spans KD1 and KD2, read-out: KD (single measurable binding affinity)
[17] = tighter site, absence of Mg2+ and Stau, read-out: KD1
[18] = weaker site, absence of Mg2+ and Stau, read-out: KD2

T10 sequence (Q13131 whole entry): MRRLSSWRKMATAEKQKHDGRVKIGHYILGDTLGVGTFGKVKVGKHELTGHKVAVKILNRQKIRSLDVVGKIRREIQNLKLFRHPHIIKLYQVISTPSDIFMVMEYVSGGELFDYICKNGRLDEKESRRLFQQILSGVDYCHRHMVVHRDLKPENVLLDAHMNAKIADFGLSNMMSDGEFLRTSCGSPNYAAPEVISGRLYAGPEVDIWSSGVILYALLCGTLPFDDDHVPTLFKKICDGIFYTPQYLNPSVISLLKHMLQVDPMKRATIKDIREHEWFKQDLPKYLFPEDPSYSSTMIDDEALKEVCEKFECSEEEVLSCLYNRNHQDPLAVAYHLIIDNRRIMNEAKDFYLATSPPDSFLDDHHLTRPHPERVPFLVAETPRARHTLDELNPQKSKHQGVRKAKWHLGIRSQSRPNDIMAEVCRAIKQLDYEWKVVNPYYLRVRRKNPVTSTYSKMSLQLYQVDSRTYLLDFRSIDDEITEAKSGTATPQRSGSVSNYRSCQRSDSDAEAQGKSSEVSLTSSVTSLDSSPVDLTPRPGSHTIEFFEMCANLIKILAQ
T10 sequence (O43741 whole entry): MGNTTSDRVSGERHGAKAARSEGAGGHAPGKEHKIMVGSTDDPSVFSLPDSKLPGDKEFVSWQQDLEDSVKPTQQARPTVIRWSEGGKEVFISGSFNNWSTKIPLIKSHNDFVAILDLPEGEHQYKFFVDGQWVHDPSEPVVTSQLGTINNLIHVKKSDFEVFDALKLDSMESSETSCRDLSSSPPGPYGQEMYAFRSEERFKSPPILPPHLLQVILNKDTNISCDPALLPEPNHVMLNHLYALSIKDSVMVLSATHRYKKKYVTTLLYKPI
T10 sequence (P54619 whole entry): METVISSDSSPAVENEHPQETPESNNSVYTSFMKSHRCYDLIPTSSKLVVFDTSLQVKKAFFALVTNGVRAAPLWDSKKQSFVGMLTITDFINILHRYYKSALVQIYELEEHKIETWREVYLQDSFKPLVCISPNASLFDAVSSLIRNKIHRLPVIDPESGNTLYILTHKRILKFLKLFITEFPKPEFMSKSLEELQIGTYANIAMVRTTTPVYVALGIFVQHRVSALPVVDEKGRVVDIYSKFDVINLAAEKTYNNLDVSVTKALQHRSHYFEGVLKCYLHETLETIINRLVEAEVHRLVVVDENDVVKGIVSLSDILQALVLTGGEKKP
T3 sequence (Q13131 whole entry): as the sequence (Q13131 whole entry) above
T3 sequence (O43741 whole entry): as the sequence (O43741 whole entry) above
T3 sequence (Q9UGI9 whole entry): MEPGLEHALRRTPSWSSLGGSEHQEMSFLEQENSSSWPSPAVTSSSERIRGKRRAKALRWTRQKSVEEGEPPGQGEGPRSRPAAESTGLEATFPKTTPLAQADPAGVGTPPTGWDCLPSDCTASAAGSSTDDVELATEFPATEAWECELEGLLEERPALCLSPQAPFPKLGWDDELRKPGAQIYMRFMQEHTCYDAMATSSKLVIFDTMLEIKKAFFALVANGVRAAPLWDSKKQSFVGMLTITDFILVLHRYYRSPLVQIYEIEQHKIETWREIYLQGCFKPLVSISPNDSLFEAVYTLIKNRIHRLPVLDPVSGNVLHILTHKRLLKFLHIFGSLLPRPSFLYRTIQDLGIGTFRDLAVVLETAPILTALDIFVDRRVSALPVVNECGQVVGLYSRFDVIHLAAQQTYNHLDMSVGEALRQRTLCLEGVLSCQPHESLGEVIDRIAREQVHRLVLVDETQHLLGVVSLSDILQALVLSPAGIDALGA
T6 sequence (Q13131 whole entry): as the sequence (Q13131 whole entry) above
T6 sequence (Q9Y478 whole entry): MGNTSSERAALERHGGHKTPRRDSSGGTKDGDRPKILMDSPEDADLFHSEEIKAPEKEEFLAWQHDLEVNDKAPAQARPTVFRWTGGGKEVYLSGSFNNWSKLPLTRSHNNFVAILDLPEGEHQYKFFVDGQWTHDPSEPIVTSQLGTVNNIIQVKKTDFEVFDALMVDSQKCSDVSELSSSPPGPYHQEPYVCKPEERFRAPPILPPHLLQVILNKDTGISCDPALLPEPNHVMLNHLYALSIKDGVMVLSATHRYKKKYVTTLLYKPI
T6 sequence (P54619 whole entry): as the sequence (P54619 whole entry) above
T2 sequence (Q13131 whole entry): as the sequence (Q13131 whole entry) above
T2 sequence (Q9Y478 whole entry): as the sequence (Q9Y478 whole entry) above
T2 sequence (P54619 whole entry): as the sequence (P54619 whole entry) above
T5 sequence (Q13131 whole entry): as the sequence (Q13131 whole entry) above
T5 sequence (O43741 whole entry): as the sequence (O43741 whole entry) above
T5 sequence (P54619 whole entry): as the sequence (P54619 whole entry) above
T7 sequence (P54646 whole entry): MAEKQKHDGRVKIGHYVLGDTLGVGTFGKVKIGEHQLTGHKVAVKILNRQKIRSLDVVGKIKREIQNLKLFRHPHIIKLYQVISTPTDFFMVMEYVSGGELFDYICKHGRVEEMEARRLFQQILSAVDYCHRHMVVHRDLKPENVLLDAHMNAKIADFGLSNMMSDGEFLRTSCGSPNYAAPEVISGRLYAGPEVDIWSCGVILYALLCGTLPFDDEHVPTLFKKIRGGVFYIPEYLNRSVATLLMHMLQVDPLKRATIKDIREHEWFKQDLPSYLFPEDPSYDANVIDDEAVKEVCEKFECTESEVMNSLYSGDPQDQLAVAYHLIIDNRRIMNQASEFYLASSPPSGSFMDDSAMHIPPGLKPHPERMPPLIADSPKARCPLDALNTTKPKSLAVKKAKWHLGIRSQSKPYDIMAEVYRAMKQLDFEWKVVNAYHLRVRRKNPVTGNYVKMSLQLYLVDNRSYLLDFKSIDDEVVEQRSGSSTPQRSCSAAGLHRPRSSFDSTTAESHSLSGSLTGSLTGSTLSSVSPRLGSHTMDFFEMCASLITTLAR
T7 sequence (O43741 whole entry): as the sequence (O43741 whole entry) above
T7 sequence (Q9UGI9 whole entry): as the sequence (Q9UGI9 whole entry) above
T8 sequence (P54646 whole entry): as the sequence (P54646 whole entry) above
T8 sequence (O43741 whole entry): as the sequence (O43741 whole entry) above
T8 sequence (P54619 whole entry): as the sequence (P54619 whole entry) above
T9 sequence (P54646 whole entry): as the sequence (P54646 whole entry) above
T9 sequence (O43741 whole entry): as the sequence (O43741 whole entry) above
T9 sequence (Q9UGI9 whole entry): as the sequence (Q9UGI9 whole entry) above
T1 sequence (P54646 whole entry): as the sequence (P54646 whole entry) above
T1 sequence (O43741 whole entry): as the sequence (O43741 whole entry) above
T1 sequence (P54619 whole entry): as the sequence (P54619 whole entry) above
T4 sequence (P54646 whole entry): as the sequence (P54646 whole entry) above
T4 sequence (Q9Y478 whole entry): as the sequence (Q9Y478 whole entry) above
T4 sequence (P54619 whole entry): as the sequence (P54619 whole entry) above

## N#Cc1c(O)c2c(-c3ccc(-c4ccccc4O)cc3)csc2[nH]c1=O [A769662]
BAP-tagged AMPK α2β2γ1; in the presence of 150 μM AMP, 37-1000 nM
  SPR binding: negligible; also recorded: could not detect any binding
BAP-tagged AMPK α1β1γ1 [1]; in the presence of 150 μM AMP, n=1, read-out: KD
  Kd: 0.03 µM
AMPK α1β2γ3 [2]; [13]
  EC50: > 40 µM
AMPK α1β2γ3 [2]; [14]
  protection of α-pThr172/174 from PP2Aα: > 70%
AMPK α2β1γ1
  enhanced protection of pThr172 compared with AMP: 3 fold
AMPK α2β1γ1; [14]
  protection of α-pThr172/174 from PP2Aα: > 70%
AMPK α1β2γ1 [3]; [13]
  EC50: 4.7 µM
AMPK α1β2γ1 [3]; [14]
  protection of α-pThr172/174 from PP2Aα: > 70%
AMPK α1β1γ1 [4]
  enhanced protection of pThr172 compared with AMP: 10 fold
AMPK α1β1γ1 [4]; [13]
  EC50: 0.046 µM
AMPK α1β1γ1 [4]; [14]
  protection of α-pThr172/174 from PP2Aα: > 70%
AMPK α2β2γ3 [5]; [13]
  EC50: 5.6 µM
AMPK α2β2γ3 [5]; [14]
  protection of α-pThr172/174 from PP2Aα: > 70%
AMPK α2β2γ1 [6]; [13]
  EC50: 2.32 µM
AMPK α2β2γ1 [6]; [14]
  protection of α-pThr172/174 from PP2Aα: > 70%
BAP-tagged AMPK α1β1γ1 [7]
  Kd: 0.048 µM
AMPK α1β2γ3 [8]
  AC50: > 40 µM
AMPK α1β2γ1 [9]
  AC50: > 40 µM
AMPK α1β1γ1 [10]
  AC50: 0.0722 µM
AMPK α2β2γ3 [11]
  AC50: > 40 µM
AMPK α2β2γ1 [12]
  AC50: > 40 µM

## Nc1ncnc2c1ncn2[C@@H]1O[C@H](COP(=O)(O)OP(=O)(O)O)[C@@H](O)[C@H]1O [ADP]
BAP-tagged AMPK α2β2γ1; [15]
  Kd: 11.9 ± 0.3 µM
BAP-tagged AMPK α2β2γ1; [16]
  Kd: 22.8 ± 0.5 µM
BAP-tagged AMPK α2β2γ1; [17]
  Kd: 2.47 ± 0.09 µM
BAP-tagged AMPK α2β2γ1; [18]
  Kd: 2600 ± 300 µM
BAP-tagged AMPK α1β1γ1 [1]; [15]
  Kd: 24.4 ± 0.4 µM
BAP-tagged AMPK α1β1γ1 [1]; [16]
  Kd: 33.3 ± 0.3 µM
BAP-tagged AMPK α1β1γ1 [1]; [17]
  Kd: 4.75 ± 0.08 µM
BAP-tagged AMPK α1β1γ1 [1]; [18]
  Kd: 1010 ± 80 µM
BAP-tagged AMPK α2β2γ3; [15]
  Kd: 12.5 ± 0.1 µM
BAP-tagged AMPK α2β2γ3; [16]
  Kd: 19 ± 0.2 µM
BAP-tagged AMPK α2β2γ3; [17]
  Kd: 11.2 ± 0.3 µM
BAP-tagged AMPK α2β2γ3; [18]
  Kd: 1500 ± 200 µM
BAP-tagged AMPK α1β2γ1; [15]
  Kd: 15 ± 1 µM
BAP-tagged AMPK α1β2γ1; [16]
  Kd: 28.2 ± 0.3 µM
BAP-tagged AMPK α1β2γ1; [17]
  Kd: 4.2 ± 0.2 µM
BAP-tagged AMPK α1β2γ1; [18]
  Kd: 2600 ± 400 µM
